The target of assay [1] is Tyrosine-protein kinase Yes (Homo sapiens) (UniProt P07947). Description: Inhibition of YES in human NCI-H929 cells at 10 uM by mass spectroscopic analysis relative to control. It is filed as cell-based.
For assay [2], the target named is Serine/threonine-protein kinase WNK3 (Homo sapiens) (UniProt Q9BYP7). Description: Inhibition of WNK3 in human NCI-H929 cells at 10 uM by mass spectroscopic analysis relative to control. It is filed as cell-based.
For assay [3], the target named is MAP kinase-activated protein kinase 2 (Homo sapiens) (UniProt P49137). Description: Inhibition of MAPKAPK2 in human NCI-H929 cells at 10 uM by mass spectroscopic analysis relative to control. It is filed as cell-based.
Assay [4] deals with Mitogen-activated protein kinase 10 (Homo sapiens) (UniProt P53779). Description: Inhibition of JNK3 in human NCI-H929 cells at 10 uM by mass spectroscopic analysis relative to control. It is filed as cell-based.
Assay [5] addresses Tyrosine-protein kinase Fyn (Homo sapiens) (UniProt P06241). Description: Inhibition of FYN in human NCI-H929 cells at 10 uM by mass spectroscopic analysis relative to control. It is filed as cell-based.
The target of assay [6] is T1, Mitogen-activated protein kinase 12 (Homo sapiens) (UniProt P53778).
T1 sequence (whole entry): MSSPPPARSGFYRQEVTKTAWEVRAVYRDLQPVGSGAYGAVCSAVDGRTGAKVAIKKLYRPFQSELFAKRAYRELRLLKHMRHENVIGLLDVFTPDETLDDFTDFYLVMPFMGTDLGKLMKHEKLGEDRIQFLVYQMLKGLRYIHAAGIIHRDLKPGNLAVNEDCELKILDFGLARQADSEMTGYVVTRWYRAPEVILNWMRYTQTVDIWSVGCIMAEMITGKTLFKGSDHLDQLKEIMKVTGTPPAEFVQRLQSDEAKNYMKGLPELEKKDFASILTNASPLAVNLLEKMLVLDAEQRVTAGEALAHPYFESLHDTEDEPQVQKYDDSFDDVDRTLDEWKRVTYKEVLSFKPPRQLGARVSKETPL
Description: Inhibition of P38gamma in human NCI-H929 cells at 10 uM by mass spectroscopic analysis relative to control. Type of assay: cell-based.

For assay [7], the target named is Proto-oncogene tyrosine-protein kinase Src (Homo sapiens) (UniProt P12931). Description: Inhibition of SRC in human NCI-H929 cells at 10 uM by mass spectroscopic analysis relative to control. It is filed as cell-based.
Sequence of Proto-oncogene tyrosine-protein kinase Src (Homo sapiens) (P12931 2-536 limits assumed): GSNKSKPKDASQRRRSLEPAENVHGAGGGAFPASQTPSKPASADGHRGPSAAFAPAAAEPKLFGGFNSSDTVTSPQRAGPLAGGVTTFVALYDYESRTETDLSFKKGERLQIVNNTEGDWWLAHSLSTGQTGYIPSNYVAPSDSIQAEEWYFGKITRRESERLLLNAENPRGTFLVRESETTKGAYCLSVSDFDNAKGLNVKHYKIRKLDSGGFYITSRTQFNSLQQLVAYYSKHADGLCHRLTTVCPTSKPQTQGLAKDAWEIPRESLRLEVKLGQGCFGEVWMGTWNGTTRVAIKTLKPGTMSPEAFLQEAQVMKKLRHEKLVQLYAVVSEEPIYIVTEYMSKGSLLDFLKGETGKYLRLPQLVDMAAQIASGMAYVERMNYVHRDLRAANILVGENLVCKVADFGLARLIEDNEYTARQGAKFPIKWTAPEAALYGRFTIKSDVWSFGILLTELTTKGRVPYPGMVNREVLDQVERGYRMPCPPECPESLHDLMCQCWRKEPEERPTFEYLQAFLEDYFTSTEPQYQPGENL
For assay [8], the target named is Mitogen-activated protein kinase 8 (Homo sapiens) (UniProt P45983). Description: Inhibition of JNK1 in human NCI-H929 cells at 10 uM by mass spectroscopic analysis relative to control. It is filed as cell-based.
In assay [9] the target is Mitogen-activated protein kinase kinase kinase kinase 4 (Homo sapiens) (UniProt O95819). Description: Inhibition of HGK in human NCI-H929 cells at 10 uM by mass spectroscopic analysis relative to control. Type of assay: cell-based.
In assay [10] the target is Phosphatidylinositol 4-kinase alpha (Homo sapiens) (UniProt P42356). Description: Inhibition of PI4KA in human NCI-H929 cells at 10 uM by mass spectroscopic analysis relative to control. It is filed as cell-based.
The target of assay [11] is MAP kinase-activated protein kinase 3 (Homo sapiens) (UniProt Q16644). Description: Inhibition of MAPKAPK3 in human NCI-H929 cells at 10 uM by mass spectroscopic analysis relative to control. Type of assay: cell-based.
Assay [12] deals with T2, Kinase suppressor of Ras 2 (Homo sapiens) (UniProt Q6VAB6).
T2 sequence (whole entry): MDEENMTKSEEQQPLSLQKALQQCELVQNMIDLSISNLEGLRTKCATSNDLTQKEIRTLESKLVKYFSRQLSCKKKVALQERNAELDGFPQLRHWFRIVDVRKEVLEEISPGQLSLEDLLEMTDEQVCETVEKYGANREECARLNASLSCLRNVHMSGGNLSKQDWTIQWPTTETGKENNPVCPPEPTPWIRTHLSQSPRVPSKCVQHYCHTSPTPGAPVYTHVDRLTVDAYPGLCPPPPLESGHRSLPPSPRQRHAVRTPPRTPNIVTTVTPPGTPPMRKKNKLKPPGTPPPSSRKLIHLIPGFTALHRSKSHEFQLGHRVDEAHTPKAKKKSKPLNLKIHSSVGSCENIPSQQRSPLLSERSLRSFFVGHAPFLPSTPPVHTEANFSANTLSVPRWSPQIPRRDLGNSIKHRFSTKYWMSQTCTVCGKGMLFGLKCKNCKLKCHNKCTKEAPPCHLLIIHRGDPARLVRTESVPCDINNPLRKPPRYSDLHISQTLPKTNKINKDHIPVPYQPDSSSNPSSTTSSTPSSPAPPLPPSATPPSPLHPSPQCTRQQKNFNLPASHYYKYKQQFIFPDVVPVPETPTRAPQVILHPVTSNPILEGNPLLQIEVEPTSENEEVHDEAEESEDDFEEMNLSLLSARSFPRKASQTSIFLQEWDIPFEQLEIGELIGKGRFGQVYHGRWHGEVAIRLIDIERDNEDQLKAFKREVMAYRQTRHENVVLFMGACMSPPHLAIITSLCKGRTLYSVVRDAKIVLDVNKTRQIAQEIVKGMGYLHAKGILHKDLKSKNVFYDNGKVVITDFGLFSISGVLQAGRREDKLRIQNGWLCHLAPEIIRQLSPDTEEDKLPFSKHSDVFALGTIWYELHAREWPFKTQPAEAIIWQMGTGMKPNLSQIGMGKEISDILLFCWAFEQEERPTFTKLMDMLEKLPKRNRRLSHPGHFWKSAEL
Description: Inhibition of KSR2 in human NCI-H929 cells at 10 uM by mass spectroscopic analysis relative to control. It is filed as cell-based.

Assay [13] addresses Serine/threonine-protein kinase WNK1 (Homo sapiens) (UniProt Q9H4A3). Description: Inhibition of WNK1 in human NCI-H929 cells at 10 uM by mass spectroscopic analysis relative to control. Type of assay: cell-based.
For assay [14], the target named is TRAF2 and NCK-interacting protein kinase (Homo sapiens) (UniProt Q9UKE5). Description: Inhibition of TNIK in human NCI-H929 cells at 10 uM by mass spectroscopic analysis relative to control. It is filed as cell-based.
Sequence of TRAF2 and NCK-interacting protein kinase (Homo sapiens) (Q9UKE5 whole entry, looked up): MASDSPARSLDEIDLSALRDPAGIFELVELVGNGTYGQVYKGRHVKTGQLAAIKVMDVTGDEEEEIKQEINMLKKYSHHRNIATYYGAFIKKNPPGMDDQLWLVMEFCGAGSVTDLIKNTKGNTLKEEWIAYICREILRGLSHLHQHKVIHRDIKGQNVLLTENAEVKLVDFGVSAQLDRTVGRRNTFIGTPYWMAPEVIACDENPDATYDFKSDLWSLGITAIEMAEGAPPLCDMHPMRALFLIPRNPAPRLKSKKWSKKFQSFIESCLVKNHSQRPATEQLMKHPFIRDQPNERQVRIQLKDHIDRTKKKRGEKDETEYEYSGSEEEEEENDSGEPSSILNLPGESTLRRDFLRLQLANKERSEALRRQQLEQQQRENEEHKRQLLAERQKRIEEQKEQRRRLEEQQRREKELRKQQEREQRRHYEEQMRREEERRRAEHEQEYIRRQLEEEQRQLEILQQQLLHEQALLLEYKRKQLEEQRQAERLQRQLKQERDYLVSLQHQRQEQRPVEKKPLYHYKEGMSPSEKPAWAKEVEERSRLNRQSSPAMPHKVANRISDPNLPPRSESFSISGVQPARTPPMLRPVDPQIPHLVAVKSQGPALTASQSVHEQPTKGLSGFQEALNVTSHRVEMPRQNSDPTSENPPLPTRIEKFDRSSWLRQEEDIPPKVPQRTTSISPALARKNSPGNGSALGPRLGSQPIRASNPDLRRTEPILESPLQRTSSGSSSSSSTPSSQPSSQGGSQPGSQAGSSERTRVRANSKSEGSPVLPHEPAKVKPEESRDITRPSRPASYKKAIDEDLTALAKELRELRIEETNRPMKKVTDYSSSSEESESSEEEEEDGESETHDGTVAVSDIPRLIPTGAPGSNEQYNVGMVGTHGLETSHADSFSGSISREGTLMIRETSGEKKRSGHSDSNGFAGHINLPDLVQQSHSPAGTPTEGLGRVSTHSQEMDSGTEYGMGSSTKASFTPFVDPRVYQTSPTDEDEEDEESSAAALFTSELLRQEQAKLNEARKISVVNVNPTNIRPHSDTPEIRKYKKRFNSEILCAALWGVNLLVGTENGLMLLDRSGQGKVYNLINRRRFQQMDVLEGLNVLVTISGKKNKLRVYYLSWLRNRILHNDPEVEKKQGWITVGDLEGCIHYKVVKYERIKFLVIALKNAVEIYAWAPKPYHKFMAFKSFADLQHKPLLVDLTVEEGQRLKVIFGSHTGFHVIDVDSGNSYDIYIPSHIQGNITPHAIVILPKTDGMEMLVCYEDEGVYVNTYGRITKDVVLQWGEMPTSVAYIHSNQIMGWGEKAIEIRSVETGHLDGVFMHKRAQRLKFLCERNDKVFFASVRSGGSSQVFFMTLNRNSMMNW
The target of assay [15] is T3, Serine/threonine-protein kinase 4 (Homo sapiens) (UniProt Q13043).
T3 sequence (whole entry): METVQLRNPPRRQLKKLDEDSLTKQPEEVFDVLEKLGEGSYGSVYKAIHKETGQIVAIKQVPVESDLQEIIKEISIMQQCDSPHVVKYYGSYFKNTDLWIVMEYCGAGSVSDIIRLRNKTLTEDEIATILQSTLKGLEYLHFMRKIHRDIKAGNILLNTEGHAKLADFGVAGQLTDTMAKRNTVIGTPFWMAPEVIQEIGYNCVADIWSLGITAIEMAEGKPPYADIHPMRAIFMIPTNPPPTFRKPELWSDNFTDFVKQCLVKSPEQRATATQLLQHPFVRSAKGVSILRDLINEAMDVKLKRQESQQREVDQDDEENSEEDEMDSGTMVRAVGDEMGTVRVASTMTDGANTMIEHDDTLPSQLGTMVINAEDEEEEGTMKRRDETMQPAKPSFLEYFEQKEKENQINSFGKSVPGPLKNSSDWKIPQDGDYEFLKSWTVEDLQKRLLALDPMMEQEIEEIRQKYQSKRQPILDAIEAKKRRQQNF
Description: Inhibition of STK4 (unknown origin) using fluorescein-labelled Ser/Thr-07 peptide as substrate incubated for 1 hr in presence of ATP at Km concentration by Z-LYTE assay.

Drawing on ChEMBL document CHEMBL4804281, “STK4 inhibitors for treatment of hematologic malignancies” (2020), this text covers inhibition and IC50 for 6 compounds.

One may read the inhibition as the share of the control response that was lost under treatment. One may read the IC50 as the concentration needed to halve the response being measured.

Sequence of Serine/threonine-protein kinase WNK1 (Homo sapiens) (Q9H4A3 whole entry, looked up): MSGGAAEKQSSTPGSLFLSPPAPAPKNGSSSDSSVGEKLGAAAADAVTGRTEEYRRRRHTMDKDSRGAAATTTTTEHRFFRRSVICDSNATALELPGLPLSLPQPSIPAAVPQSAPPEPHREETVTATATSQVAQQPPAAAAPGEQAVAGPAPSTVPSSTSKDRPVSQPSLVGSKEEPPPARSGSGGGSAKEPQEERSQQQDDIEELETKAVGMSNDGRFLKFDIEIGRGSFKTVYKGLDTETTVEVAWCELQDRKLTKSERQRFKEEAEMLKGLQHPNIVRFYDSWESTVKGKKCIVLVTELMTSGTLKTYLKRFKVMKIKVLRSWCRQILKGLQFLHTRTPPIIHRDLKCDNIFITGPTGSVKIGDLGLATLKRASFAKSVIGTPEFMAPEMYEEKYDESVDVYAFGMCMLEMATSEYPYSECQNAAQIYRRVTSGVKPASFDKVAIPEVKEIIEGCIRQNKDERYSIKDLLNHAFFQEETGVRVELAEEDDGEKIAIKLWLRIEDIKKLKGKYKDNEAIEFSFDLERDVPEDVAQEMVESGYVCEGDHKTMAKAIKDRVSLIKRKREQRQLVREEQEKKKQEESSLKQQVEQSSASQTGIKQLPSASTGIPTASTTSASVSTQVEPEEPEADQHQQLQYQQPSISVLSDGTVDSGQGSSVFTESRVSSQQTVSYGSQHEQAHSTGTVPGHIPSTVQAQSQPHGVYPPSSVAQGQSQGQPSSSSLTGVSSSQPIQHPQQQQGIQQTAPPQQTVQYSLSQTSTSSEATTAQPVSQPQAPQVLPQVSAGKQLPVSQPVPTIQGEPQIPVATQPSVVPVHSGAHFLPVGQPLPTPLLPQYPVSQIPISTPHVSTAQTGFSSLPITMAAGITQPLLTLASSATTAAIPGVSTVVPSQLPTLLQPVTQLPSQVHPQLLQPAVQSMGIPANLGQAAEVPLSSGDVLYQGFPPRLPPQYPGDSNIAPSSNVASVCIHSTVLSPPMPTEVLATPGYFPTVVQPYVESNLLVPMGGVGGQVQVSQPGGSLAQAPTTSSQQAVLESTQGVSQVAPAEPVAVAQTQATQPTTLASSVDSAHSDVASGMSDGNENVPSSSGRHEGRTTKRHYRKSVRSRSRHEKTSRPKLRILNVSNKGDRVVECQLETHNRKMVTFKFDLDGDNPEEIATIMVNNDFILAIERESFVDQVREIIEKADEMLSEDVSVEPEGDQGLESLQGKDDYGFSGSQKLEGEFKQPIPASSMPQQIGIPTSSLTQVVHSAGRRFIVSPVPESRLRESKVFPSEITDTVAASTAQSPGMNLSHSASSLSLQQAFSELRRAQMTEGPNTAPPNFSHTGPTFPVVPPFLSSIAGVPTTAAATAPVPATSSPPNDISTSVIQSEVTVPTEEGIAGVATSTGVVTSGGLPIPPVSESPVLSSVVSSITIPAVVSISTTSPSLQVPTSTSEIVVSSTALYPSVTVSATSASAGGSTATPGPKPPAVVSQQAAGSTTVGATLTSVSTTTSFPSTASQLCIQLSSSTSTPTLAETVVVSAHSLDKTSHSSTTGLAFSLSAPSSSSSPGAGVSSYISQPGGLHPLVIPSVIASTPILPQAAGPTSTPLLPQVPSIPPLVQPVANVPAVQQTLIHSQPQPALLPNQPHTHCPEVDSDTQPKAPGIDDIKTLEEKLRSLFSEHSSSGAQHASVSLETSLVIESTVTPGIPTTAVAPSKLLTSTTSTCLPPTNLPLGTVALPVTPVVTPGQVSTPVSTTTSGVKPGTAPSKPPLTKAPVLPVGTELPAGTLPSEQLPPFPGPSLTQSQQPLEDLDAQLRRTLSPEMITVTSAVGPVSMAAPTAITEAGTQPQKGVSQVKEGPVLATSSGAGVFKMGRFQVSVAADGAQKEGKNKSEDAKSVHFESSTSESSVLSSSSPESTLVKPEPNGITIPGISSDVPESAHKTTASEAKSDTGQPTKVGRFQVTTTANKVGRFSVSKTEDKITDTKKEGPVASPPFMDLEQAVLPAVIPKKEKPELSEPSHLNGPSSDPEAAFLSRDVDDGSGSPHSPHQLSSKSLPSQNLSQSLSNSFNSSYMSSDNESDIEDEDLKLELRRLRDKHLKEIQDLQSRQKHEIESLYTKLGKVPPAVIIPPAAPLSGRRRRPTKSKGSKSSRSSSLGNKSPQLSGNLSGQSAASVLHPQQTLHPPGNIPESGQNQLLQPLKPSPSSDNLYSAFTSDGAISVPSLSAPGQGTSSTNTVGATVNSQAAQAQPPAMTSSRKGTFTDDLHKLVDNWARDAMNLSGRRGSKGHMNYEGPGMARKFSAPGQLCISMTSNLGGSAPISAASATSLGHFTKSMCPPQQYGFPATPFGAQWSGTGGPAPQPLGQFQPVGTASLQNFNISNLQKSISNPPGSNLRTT
Sequence of Tyrosine-protein kinase Yes (Homo sapiens) (P07947 2-543 limits assumed): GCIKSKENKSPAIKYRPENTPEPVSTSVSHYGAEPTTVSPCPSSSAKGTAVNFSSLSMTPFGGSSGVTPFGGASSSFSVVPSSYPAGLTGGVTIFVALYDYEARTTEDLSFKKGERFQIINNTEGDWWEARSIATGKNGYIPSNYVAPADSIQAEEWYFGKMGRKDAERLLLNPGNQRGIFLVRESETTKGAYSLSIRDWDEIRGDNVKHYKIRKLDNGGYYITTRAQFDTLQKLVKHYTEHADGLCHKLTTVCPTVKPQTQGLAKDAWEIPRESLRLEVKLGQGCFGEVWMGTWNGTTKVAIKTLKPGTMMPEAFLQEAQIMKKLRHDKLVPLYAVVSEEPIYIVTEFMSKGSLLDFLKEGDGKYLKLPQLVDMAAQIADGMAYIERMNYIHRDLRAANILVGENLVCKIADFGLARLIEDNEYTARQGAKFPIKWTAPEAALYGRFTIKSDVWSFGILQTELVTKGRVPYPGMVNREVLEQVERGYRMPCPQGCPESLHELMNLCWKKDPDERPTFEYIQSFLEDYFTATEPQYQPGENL

For `CN(C1CC1)S(=O)(=O)c1ccc(-c2cnc(N)c(-c3ccc4c(c3)CCNC4=O)c2)c(F)c1`, the inhibition in [1], in [2], in assay [3], in assay [4], in assay [5] and in assay [6] was 0% throughout. The inhibition is 0% in assay [7]; 0% in [8]; more than 90% in assay [9]; 0% in [10]; 0% in [11]; 0% in assay [12]. Besides, the inhibition in [13] is 0%; in [14], more than 90%. The IC50 in [15] was less than 40 nM.
On to `COc1cc(NS(=O)(=O)C2CC2)ccc1-c1cnc(N)c(-c2ccc3c(c2)CCNC3=O)c1`, for which the inhibition was more than 90% in assay [1]; 0% in assay [2]; 0% in assay [3]; 75% in assay [4]; 0% in [5]; 0% in assay [6]. In addition, the inhibition was 0% in [7]; 0% in assay [8]; more than 90% in [9]; 0% in assay [10]; 0% in assay [11]; 0% in assay [12]. Besides, the inhibition is 0% in [13] and more than 90% in assay [14]. The IC50 in [15] is less than 40 nM.
For the compound `Nc1ncc(-c2ccc(NS(=O)(=O)C3CC3)cc2F)cc1-c1ccc2c(c1)CCNC2=O`, the inhibition in [1], in assay [2], in assay [3], in assay [4], in [5] and in [6] was 0% each time. The inhibition in assay [7] was 0%; in [8], 0%; in assay [9] it was more than 90%; in [10], 0%; in assay [11], 0%; in assay [12], 0%. Further, the inhibition in [13] was 0%; in [14] it was more than 90%. Besides, in assay [15], the IC50 was less than 40 nM.
As to `Nc1ncc(-c2ccc(NS(=O)(=O)C3CC3)cc2OC2CCCCC2)cc1-c1ccc2c(c1)CCNC2=O`, the inhibition in [1], in assay [2], in assay [3], in assay [4], in assay [5] and in assay [6] was 0% each time. In addition, the inhibition in assay [7] was 0%; in assay [8] it was 0%; in assay [9], more than 90%; in assay [10], 0%; in [11], 0%; in assay [12], 0%. In addition, the inhibition in assay [13] turned out to be 0%; in assay [14], 50%. Besides, the IC50 in [15] was less than 40 nM.
`Nc1ncc(-c2cccc3ncsc23)cc1-c1ccc2c(c1)CCNC2=O`: the inhibition in [1], in assay [2], in assay [3], in [4], in assay [5] and in assay [6] was 0% each time. Moreover, the inhibition in [7] is 0%; in assay [8] it was 0%; in [9], more than 90%; in assay [10], 0%; in [11], 0%; in assay [12], 0%. In addition, the inhibition in [13] was 0%; in assay [14] it was more than 90%. Further, the IC50 in [15] is less than 40 nM.
Turning to `Nc1ncc(-c2cccc([N+](=O)[O-])c2F)cc1-c1ccc2c(c1)CCNC2=O`, the inhibition in assay [1] is 0%; in assay [2] it was more than 100%; in [3], 0%; in assay [4], 0%; in assay [5] it was 0%; in [6], 0%. In addition, the inhibition was 0% in [7]; 0% in assay [8]; more than 90% in assay [9]; 0% in assay [10]; 0% in [11]; 0% in [12]. Besides, the results for the inhibition in [13] and in [14] were more than 100% and more than 90%, respectively. Moreover, in [15], the IC50 was less than 40 nM.
